Experimental data taken from ChEMBL document CHEMBL1201862, “PubChem BioAssay data set” (2004).
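Each compound was tested at five concentrations against cells in 96-well plates for 48 hours. At the GI50, growth is halved.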 Activity calls are given as the source filed them. Rule as the data show it: active = GI50 up to about 1.1 µM and inactive = higher.

Tests used:
Experiment in all cases: NCI anticancer screen, dose series, 48 h
CCRF-CEM = tested on: CCRF-CEM
COLO 205 = tested on: COLO 205
EKVX = tested on: EKVX
HCC 2998 = tested on: HCC 2998
HL-60 = tested on: HL-60
Hs-578T = tested on: Hs-578T
IGROV-1 = tested on: IGROV-1
LOX IMVI = tested on: LOX IMVI
NCI-H23 = tested on: NCI-H23
PC-3 = tested on: PC-3
RPMI-8226 = tested on: RPMI-8226
RXF 393 = tested on: RXF 393
SF-268 = tested on: SF-268
SF-295 = tested on: SF-295
SK-MEL-5 = tested on: SK-MEL-5
TK-10 = tested on: TK-10
UACC-257 = tested on: UACC-257
UACC-62 = tested on: UACC-62
SNB-75 = tested on: SNB-75

| SMILES | GI50 (CCRF-CEM) | GI50 (COLO 205) | GI50 (EKVX) | GI50 (HCC 2998) | GI50 (HL-60) | GI50 (Hs-578T) | GI50 (IGROV-1) | GI50 (LOX IMVI) | GI50 (NCI-H23) | GI50 (PC-3) | GI50 (RPMI-8226) | GI50 (RXF 393) | GI50 (SF-268) | GI50 (SF-295) | GI50 (SK-MEL-5) | GI50 (TK-10) | GI50 (UACC-257) | GI50 (UACC-62) | GI50 (SNB-75) |
| --- | --- | --- | --- | --- | --- | --- | --- | --- | --- | --- | --- | --- | --- | --- | --- | --- | --- | --- | --- |
| Cc1c(C(=O)O)n2c(S)nnc2c2ccccc12 | > 100 µM (inactive) | > 100 µM (inactive) | > 100 µM (inactive) | > 100 µM (inactive) | > 100 µM (inactive) | > 100 µM (inactive) | > 100 µM (inactive) | > 100 µM (inactive) | > 100 µM (inactive) | > 100 µM (inactive) | > 100 µM (inactive) | > 100 µM (inactive) | > 100 µM (inactive) | > 100 µM (inactive) | > 100 µM (inactive) | > 100 µM (inactive) | > 100 µM (inactive) | > 100 µM (inactive) |  |
| COc1c(/C=C/C(C)(C)O)cc(C2CC(=O)c3c(O)cc(O)cc3O2)cc1CC=C(C)C (configuration not stated) | 13.2 µM (inactive) | 9.35 µM (inactive) |  | 2.36 µM (inactive) | 12.8 µM (inactive) | 10.7 µM (inactive) |  | 4.44 µM (inactive) | 9.02 µM (inactive) | 8.53 µM (inactive) | 10.8 µM (inactive) | 7.91 µM (inactive) | 9.04 µM (inactive) | 7.26 µM (inactive) | 8.47 µM (inactive) | 8.67 µM (inactive) | 8.3 µM (inactive) | 6.79 µM (inactive) | 9.86 µM (inactive) |
| CC1=C(C#N)C2C(=C(C)N1)C(N)=Nc1ccccc12 (configuration not stated) | 32.5 µM (inactive) | 42.8 µM (inactive) | 19.1 µM (inactive) | 35.2 µM (inactive) | 29.3 µM (inactive) | 23 µM (inactive) | 29.9 µM (inactive) | 36 µM (inactive) | 55.2 µM (inactive) | 29.6 µM (inactive) |  | 38 µM (inactive) | 39.4 µM (inactive) | 30.6 µM (inactive) | 30 µM (inactive) | 46.8 µM (inactive) | 99.5 µM (inactive) | 25.8 µM (inactive) | 8.17 µM (inactive) |
| O=C1c2ccccc2C(C2c3ccccc3C(=O)c3cc(Br)ccc32)c2ccc(Br)cc21 (configuration not stated) |  | > 100 µM (inactive) | > 100 µM (inactive) | > 100 µM (inactive) | < 0.01 µM (active) | > 100 µM (inactive) | > 100 µM (inactive) | > 100 µM (inactive) | > 100 µM (inactive) | > 100 µM (inactive) | > 100 µM (inactive) | > 100 µM (inactive) | > 100 µM (inactive) | > 100 µM (inactive) | > 100 µM (inactive) | > 100 µM (inactive) | > 100 µM (inactive) | > 100 µM (inactive) | > 100 µM (inactive) |
| Cc1c(C(=O)N2CCN(c3ccc([N+](=O)[O-])cc3)CC2)[n+]([O-])c2cc(Cl)c(Cl)cc2[n+]1[O-] | > 100 µM (inactive) | 26.4 µM (inactive) | 20.6 µM (inactive) | 13.2 µM (inactive) | 28.4 µM (inactive) | 22.6 µM (inactive) | 22.2 µM (inactive) | 29.9 µM (inactive) | 14.8 µM (inactive) | 19.1 µM (inactive) | 15.6 µM (inactive) | 13.6 µM (inactive) | 17.3 µM (inactive) | 19.1 µM (inactive) | 10.9 µM (inactive) | 21.6 µM (inactive) | 35.6 µM (inactive) | 15.8 µM (inactive) |  |
| CC1=NN(c2cccc(Cl)c2)C2(C1=Cc1cccs1)C(Cl)C(=O)N2c1nc2ccccc2s1 (configuration not stated) |  |  | 19.5 µM (inactive) | 17 µM (inactive) | 25.6 µM (inactive) | 27.4 µM (inactive) | 28.6 µM (inactive) | 19.6 µM (inactive) | 21.3 µM (inactive) | 20.9 µM (inactive) | 17.9 µM (inactive) | 21.1 µM (inactive) | 21.5 µM (inactive) | 19.6 µM (inactive) | 17.4 µM (inactive) | 28.6 µM (inactive) | 23.2 µM (inactive) |  | 34.8 µM (inactive) |
| O=C1CSC(=S)N1c1ccc(F)cc1F | 25.6 µM (inactive) | 46.2 µM (inactive) | 94.8 µM (inactive) | 34.8 µM (inactive) |  | 41.3 µM (inactive) | 51.6 µM (inactive) | 36.5 µM (inactive) | 46.5 µM (inactive) | > 100 µM (inactive) | 24.4 µM (inactive) | 72.9 µM (inactive) | 44.6 µM (inactive) | 44.8 µM (inactive) | 25.4 µM (inactive) | 94.4 µM (inactive) | 43.8 µM (inactive) | 70.8 µM (inactive) | 42.3 µM (inactive) |
| O=C1Nc2ccc(Br)cc2/C1=N/N1C(=O)C(=O)N(C2CCCCC2)C1=S | 2.21 µM (inactive) | 2.92 µM (inactive) | 4.98 µM (inactive) | 3.64 µM (inactive) | 2.16 µM (inactive) | 8.38 µM (inactive) |  | 4.07 µM (inactive) | 7.11 µM (inactive) | 3.52 µM (inactive) | 4.25 µM (inactive) | 10 µM (inactive) | 6.7 µM (inactive) | 3.16 µM (inactive) | 4.34 µM (inactive) | 12.2 µM (inactive) | 9.55 µM (inactive) | 3.05 µM (inactive) |  |
| C/C(=C\CSCC(N)C(=O)O)CC/C=C(\C)CNc1ccccc1 (configuration not stated) |  | > 100 µM (inactive) | > 100 µM (inactive) | > 100 µM (inactive) | > 100 µM (inactive) | > 100 µM (inactive) | > 100 µM (inactive) | > 100 µM (inactive) | > 100 µM (inactive) | > 100 µM (inactive) | 0.421 µM (active) | > 100 µM (inactive) | > 100 µM (inactive) | > 100 µM (inactive) | 75.2 µM (inactive) | > 100 µM (inactive) | > 100 µM (inactive) | > 100 µM (inactive) | > 100 µM (inactive) |
| Cc1cc(=O)oc2cc(SC(=O)N(C)C)ccc12 |  | > 100 µM (inactive) | 61 µM (inactive) | > 100 µM (inactive) | > 100 µM (inactive) | > 100 µM (inactive) | > 100 µM (inactive) | > 100 µM (inactive) | > 100 µM (inactive) | > 100 µM (inactive) | > 100 µM (inactive) | > 100 µM (inactive) | > 100 µM (inactive) | > 100 µM (inactive) | > 100 µM (inactive) | > 100 µM (inactive) | > 100 µM (inactive) | 57.1 µM (inactive) | > 100 µM (inactive) |
| Nc1nc(S)c2c(N)n[nH]c2c1C(=O)Nc1ccc(Cl)cc1 |  | > 100 µM (inactive) | > 100 µM (inactive) | > 100 µM (inactive) | 21.2 µM (inactive) | > 100 µM (inactive) | > 100 µM (inactive) | 5.41 µM (inactive) |  | > 100 µM (inactive) | > 100 µM (inactive) | > 100 µM (inactive) | > 100 µM (inactive) |  | > 100 µM (inactive) | > 100 µM (inactive) | 77.1 µM (inactive) | 18.4 µM (inactive) | > 100 µM (inactive) |
